The values below come from patent publication US12187758B2 (ROME Therapeutics, Inc., priority 2022, dated 2025).

Usually pIC50 stands for the negative decadic logarithm of the IC50, by convention in mol/L. A high value points to a small IC50.

pIC50: −log10 of the molar value.

Assay type in all cases: cell-based
The test system of one assay is THP1-Dual KO-TREX1 cells. Kind of assay: THP1 TREX1 KO inhibition assay (type 1 interferon response). Particulars: Homo sapiens, 144 h, type 1 interferon (QUANTI-LUC), 1 μM 5-aza-2′-deoxycytidine, six days. The procedure: Exemplary compounds were tested for their ability to alter the type 1 interferon response in THP1 Dual TREX1 KG cells treated with 5-aza-2′-deoxycytidine. Assay procedures and results are described below.
THP1 Dual TREX1 KG cells were purchased from Invivogen. The THP1-Dual™ KO-TREX1 cells were cultured in RPMI 1640, 10% heat-inactivated fetal bovine serum, 25 mM HEPES, 10 μg/mL blasticidin, and 100 μg/mL zeocin. THP1-Dual™ KO-TREX1 cells were treated with a dose titration of a test compound alone or in the presence of 1 μM 5-aza-2′-deoxycytidine (Sigma-Aldrich, cat #189825). Type 1 Interferon and cell viability were assessed after six days of treatment.
Stock solution of the test compound was prepared in DMSO followed by a three-fold dilution in DMSO. Additional 50× dilution was prepared in cell culture media for each dilution. 10 μL of diluted test compound was then added to a 96-well plate.
THP1-Dual™ KO-TREX1 cells were treated with either 1×PBS or 1 μM 5-aza-2′-deoxycytidine. […] of the THP1-Dual™ KO-TREX1 cells from either treatment were added to each well of the 96-well plate containing the test compound titration at 50,000 cells/well. Cells were incubated at 37° C., 5% CO2 in a humidified incubator for six days. Cells treated with 1 μM 5-aza-2′-deoxycytidine were added at the same density as above and incubated at 37° C., 5% CO2 in a humidified incubator for six days. On day six, 25 μL of cell supernatant was transferred to a 96-well white-walled plate, followed by addition to each well of 50 μL of QUANTI-LUC solution containing stabilizer. Luminescence was detected on a plate reader according to the manufacturer's instructions.
The remaining cells were assessed for cell viability by adding 25 μL of CellTiter-Glo (Promega, G9683) solution to each well, and being placed on a shaker for 10 minutes at room temperature. Luminescence was detected on a plate reader, according to the manufacturer's instructions.
In the tables “A” represents values≤0.050 μM; “B” represents values from >0.050 μM to ≤0.100 μM; “C” represents values from >0.100 μM to ≤0.250 μM; “D” represents values from >0.250 μM to ≤1 μM; “E” represents values>1 μM; and “NT”=not tested: […]

Assay [1] in a line: Mitochondria toxicity assay with PC3 cells, in-cell ELISA COX-1. The following applies: 5 days treatment. On the procedure:
(§1) Exemplary compounds were tested for inhibition of expression of mitochondria DNA encoded proteins COX-1 […]. SDH-A (succinate dehydrogenase-A) is a control mitochondria protein encoded by nuclear DNA. Reduction in COX-1 expression indicates off target inhibition of mitochondria DNA synthesis which leads to mitochondrial toxicity. Assay procedures and results are described below.
(§2) PC3 cells were purchased from ATCC and cultured in F-12 Kaighn's modified medium (Hyclone), 10% heat-inactivated fetal bovine serum (Invitrogen), 1% Penicillin-Streptomycin (Invitrogen). PC3 cells were treated with a dose titration of a test compound on 96 well plates for 5 days at 37° C., 5% CO2 in a humidified incubator. The treatment plates are duplicated, one for in-cell ELISA for mitochondria proteins and one for cytotoxicity.
(§3) In-cell ELISA was performed to measure mitochondrial proteins using MitoBiogenesis In-Cell ELISA kit (Abcam) per manufacturer's instruction. The medium was aspirated from the compound treated cells, 100 μl per well of 4% paraformaldehyde (Solarbio) was added and cells were incubated at room temperature for 20 minutes. The cells were washed three times with PBS. 100 μl of 0.5% acetic acid was added per cell, and the cells were incubate at room temperature for 5 minutes. Cells were washed once with PBS. 100 μl per well of Permeabilization Buffer was added, and the cells incubate at room temperature for 30 minutes. The permeabilization buffer was removed and 200 μl per well 2× Blocking Buffer was added and the cells were incubated at room temperature for 2 hours. After removing the Blocking Buffer 100 μl per well of primary antibody to SDH-A or COX-1 was added, and the cells were incubated at 4° C. overnight. The primary antibody solution was removed and cells were washed 3 times with the Wash Buffer. 100 μl per well of AP- and HRP-labelled secondary antibodies was added, and the cells were incubated at room temperature for 1 hour. The cells were then washed 4 times with the Wash Buffer. For SDH-A detection, 100 μl per well AP Development Solution was added, and the cells were incubated at room temperature for 10 minutes. Cells were then read on CLARTO star^plus microplate reader (BMG Labtech) for kinetic readings at 405 nm for 5 minutes. […] The cells were then read on CLARTO star^plus microplate reader (BMG Labtech) for kinetic readings at 600 nm for 15 minutes.
(§4) In the table “A” represents values<1.0 μM; “B” represents values from >1.0 μM to ≤10.0 μM; “C” represents values from >10.0 μM to ≤50.0 μM; “D” represents values from >50.0 μM to ≤100.0 μM; and “E” represents values>100.0 μM.
Background: ELISA stands for enzyme-linked immunosorbent assay.

Assay [2] relates to SDH-A (succinate dehydrogenase-A). Kind of assay: Mitochondria toxicity assay with PC3 cells, in-cell ELISA SDH-A. The following applies: 5 days treatment. The procedure: as §1, §2, §3, §4
The next assay deals with PC3 cells. Kind of assay: Mitochondria toxicity assay with PC3 cells, cytotoxicity (Cell Titer Glo). Particulars: Homo sapiens, PC-3, 120 h, 5 days treatment. The procedure:
as §2
For the cytotoxicity assay, the medium from the cell viability plate was removed, 50 μL per well of Cell Titer Glo (Promega, G9683) was added. Then the cells incubated for 30 minutes at room temperature. Luminescence was read by Envision (PerkinElmer 2105).
as §4
In general terms: ATP-based viability assays read luminescence as a measure of living cells.

For the compound `Nc1ccn([C@@H]2O[C@@](CO)(CCl)[C@@H](O)C2(F)F)c(=O)n1` [Compound 119, 4-amino-1-((2R,4R,5R)-5-(chloromethyl)-3,3-difluoro-4-hydroxy-5-(hydroxymethyl)tetrahydrofuran-2-yl)pyrimidin-2(1H)-one], the pIC50 is < 6.00 with THP1-Dual KO-TREX1 cells, 5.00 to 6.00 in assay [1], 5.00 to 6.00 in assay [2] and 5.00 to 6.00 with PC3 cells.

As to `C=C[C@]1(COC(=O)C(C)C)O[C@@H](n2ccc(N)nc2=O)C[C@@H]1OC(=O)C(C)C` [Compound 53, [(2R,3S,5R)-5-(4-amino-2-oxopyrimidin-1-yl)-2-ethenyl-3-[(2-methylpropanoyl)oxy]oxolan-2-yl] methyl 2-methylpropanoate], the pIC50 is < 6.00 in the assay on THP1-Dual KO-TREX1 cells, < 4.00 in assay [1], < 4.00 in assay [2] and < 4.00 with PC3 cells.

For the compound `Cc1cn([C@@H]2O[C@@](CO)(CCl)[C@@H](O)[C@H]2F)c(=O)[nH]c1=O` [Compound 9, 1-((2R,3R,4R,5R)-5-(chloromethyl)-3-fluoro-4-hydroxy-5-(hydroxymethyl)tetrahydrofuran-2-yl)-5-methylpyrimidine-2,4(1H,3H)-dione], the pIC50 in the assay with THP1-Dual KO-TREX1 cells is < 6.00; in assay [1], < 4.00; in assay [2], < 4.00; in the assay with PC3 cells, < 4.00.

Take `CC[C@]1(CO)O[C@@H](n2cnc3c(N)nc(F)nc32)[C@@H](F)[C@@H]1O` [Compound 81, (2R,3R,4S,5R)-5-(6-amino-2-fluoropurin-9-yl)-2-ethyl-4-fluoro-2-(hydroxymethyl)oxolan-3-ol]: the pIC50 in the assay with THP1-Dual KO-TREX1 cells is < 6.00; in assay [1], < 4.00; in assay [2], < 4.00; in the assay on PC3 cells, < 4.00.

With `C=C[C@]1(CO)O[C@@H](n2ccc(N)nc2=O)C[C@@H]1O` [Compound 43, 4-amino-1-((2R,4S,5R)-4-hydroxy-5-(hydroxymethyl)-5-vinyltetrahydrofuran-2-yl)pyrimidin-2(1H)-one], the pIC50 with THP1-Dual KO-TREX1 cells is < 6.00; in assay [1] it was 5.00 to 6.00; in assay [2], 5.00 to 6.00; in the assay on PC3 cells it was < 4.00.

Regarding `Nc1nc2c(ncn2[C@H]2C[C@H](O)[C@](CO)(CF)O2)c(=O)[nH]1` [Compound 46, 2-amino-9-((2R,4S,5R)-5-(fluoromethyl)-4-hydroxy-5-(hydroxymethyl)tetrahydro-furan-2-yl)-1,9-dihydro-6H-purin-6-one], the pIC50 is < 6.00 in the assay on THP1-Dual KO-TREX1 cells, 5.00 to 6.00 in assay [1], 5.00 to 6.00 in assay [2] and 5.00 to 6.00 with PC3 cells.

As to `Cc1cn([C@H]2C[C@H](O)[C@](CO)(CCl)O2)c(=O)[nH]c1=O` [Compound 4, 1-((2R,4S,5R)-5-(chloromethyl)-4-hydroxy-5-(hydroxymethyl)tetrahydrofuran-2-yl)-5-methylpyrimidine-2,4(1H,3H)-dione], the pIC50 is < 6.00 with THP1-Dual KO-TREX1 cells, < 4.00 in assay [1], < 4.00 in assay [2] and < 4.00 with PC3 cells.

For the compound `N#C[C@]1(CO)O[C@@H](n2cnc3c(N)nc(F)nc32)C[C@@H]1O` [Compound 26, (2R,3S,5R)-5-(6-amino-2-fluoro-9H-purin-9-yl)-3-hydroxy-2-(hydroxymethyl) tetrahydrofuran-2-carbonitrile], the pIC50 is < 6.00 with THP1-Dual KO-TREX1 cells, 4.00 to 4.30 in assay [1], < 4.00 in assay [2] and < 4.00 with PC3 cells.

For `C#C[C@]1(CO)O[C@@H](n2cnc3c(N)nc(F)nc32)[C@@H](F)[C@@H]1O` [Compound 42, (2R,3R,4S,5R)-5-(6-amino-2-fluoro-9H-purin-9-yl)-2-ethynyl-4-fluoro-2-(hydroxymethyl)tetrahydro-furan-3-ol], the pIC50 with THP1-Dual KO-TREX1 cells was < 6.00; in assay [1], 4.30 to 5.00; in assay [2] it was 4.30 to 5.00; in the assay on PC3 cells, 4.00 to 4.30.

Turning to `Nc1nc(=O)n([C@@H]2OC(CO)(CO)[C@@H](O)[C@@H]2F)cc1F` [Compound 177, 4-amino-5-fluoro-1-((2R,3S,4R)-3-fluoro-4-hydroxy-5,5-bis(hydroxymethyl)tetrahydrofuran-2-yl) pyrimidin-2(1H)-one], the pIC50 in the assay with THP1-Dual KO-TREX1 cells was < 6.00; in assay [1] it was < 4.00; in assay [2], < 4.00; with PC3 cells, < 4.00.

As for `Nc1ccn([C@@H]2O[C@@](CO)(CF)[C@@H](O)[C@@H]2F)c(=O)n1` [Compound 113, 4-amino-1-((2R,3S,4R,5R)-3-fluoro-5-(fluoromethyl)-4-hydroxy-5-(hydroxymethyl)-tetrahydrofuran-2-yl)pyrimidin-2(1H)-one], the pIC50 with THP1-Dual KO-TREX1 cells is < 6.00; in assay [1], > 6.00; in assay [2] it was > 6.00; in the assay on PC3 cells, > 6.00.

As to `C[C@]1(CO)O[C@@H](n2ccc(N)nc2=O)C[C@@H]1O` [Compound 106, 4-amino-1-((2R,4S,5R)-4-hydroxy-5-(hydroxymethyl)-5-methyltetrahydrofuran-2-yl)pyrimidin-2(1H)-one], the pIC50 in the assay on THP1-Dual KO-TREX1 cells was 6.00 to 6.60; in assay [1], > 6.00; in assay [2] it was > 6.00; in the assay on PC3 cells, > 6.00.

Consider `Cc1cn([C@H]2C[C@H](F)[C@](CO)(CCl)O2)c(=O)[nH]c1=O` [Compound 7, 1-((2R,4S,5R)-5-(chloromethyl)-4-fluoro-5-(hydroxymethyl)tetrahydrofuran-2-yl)-5-methylpyrimidine-2,4(1H,3H)-dione], for which the pIC50 was < 6.00 with THP1-Dual KO-TREX1 cells, < 4.00 in assay [1], < 4.00 in assay [2] and < 4.00 in the assay with PC3 cells.

In the case of `Nc1ccn([C@H]2C[C@H](O)[C@](CO)(CC(F)(F)F)O2)c(=O)n1` [Compound 62, 4-amino-1-[(2R,4S,5R)-4-hydroxy-5-(hydroxymethyl)-5-(2,2,2-trifluoroethyl)oxolan-2-yl] pyrimidin-2-one], the pIC50 in the assay on THP1-Dual KO-TREX1 cells is < 6.00; in assay [1] it was 4.30 to 5.00; in assay [2], 4.30 to 5.00; in the assay on PC3 cells, 4.30 to 5.00.

As to `C#C[C@]1(CO)O[C@@H](n2cc(F)c(N)nc2=O)[C@@H](F)[C@@H]1O` [Compound 112, 4-amino-1-((2R,3S,4R,5R)-5-ethynyl-3-fluoro-4-hydroxy-5-(hydroxymethyl)tetrahydrofuran-2-yl)-5-fluoropyrimidin-2(1H)-one], the pIC50 in the assay on THP1-Dual KO-TREX1 cells was < 6.00; in assay [1], > 6.00; in assay [2], > 6.00; with PC3 cells it was < 4.00.
